Test results published in US20100129434A1, “COMPOSITIONS AND METHODS FOR THE TREATMENT OF MUCORMYCOSIS AND OTHER FUNGAL DISEASES” (priority 2006, published 2010).
Values after ≈ are worked out from the molar mass of the structure shown. Like-named read-outs stand apart in the source and are kept apart here.

Tested on: R. oryzae
Assay: Deferasirox susceptibility testing (MIC/MFC), R. oryzae isolates
Format: cell-based, Rhizopus oryzae
Settings: for MFC / MIC: Rhizopus arrhizus; for MFC: read-out: MFC; for MIC: read-out: MIC
Description: Minimum inhibitory concentration (MIC) and minimum fungicidal concentration (MFC) were determined for deferasirox by the method of Espinel-Ingroff using R. oryzae spores starved for iron (Espinel-Ingroff, (2001), supra). Cidality was defined as a <4-fold difference between MIC and MFC.
We next determined the deferasirox susceptibilities of multiple clinical isolates of Mucorales (Table 3). The MIC9OS of deferasirox against Mucor, non-oryzae Rhizopus spp., and R. oryzae were 3.12 to 6.25 μg/ml. MFCs were similar to MICs, and deferasirox was cidal for 28/29 (97%) of isolates. Of note, slight growth was seen within the first twelve hours even at extremely high concentrations of deferasirox. […] Furthermore, the MICs and MFCs of deferasirox against these isolates were well below clinically achievable peak (˜38 μg/ml) and trough serum levels (˜17 μg/ml) of the drug at steady state when administered at the FDA-approved starting dose (20 mg/kg/d).

[1] = 24 h, R. oryzae pyr17 pyrG−/−, 24 h
[2] = 24 h, R. orzae type II 10206, 24 h

O=C(O)c1ccc(-n2nc(-c3ccccc3O)nc2-c2ccccc2O)cc1 [Deferasirox, 4-[3,5-Bis(2-hydroxyphenyl)-1H-1,2,4-triazol-1-yl]-benzoic acid]
Fungicidal? (R. oryzae 99-133, 24 h): Y (Cidal = MFC/MIC ≦ 4) | Fungicidal? (R. oryzae 99-133, 48 h): Y (Cidal = MFC/MIC ≦ 4) | Fungicidal? (R. oryzae 99-880, 24 h): Y (Cidal = MFC/MIC ≦ 4) | Fungicidal? (R. oryzae 99-880, 48 h): Y (Cidal = MFC/MIC ≦ 4) | Fungicidal? (R. oryzae 99-892, 24 h): Y (Cidal = MFC/MIC ≦ 4) | Fungicidal? (R. oryzae 99-892, 48 h): Y (Cidal = MFC/MIC ≦ 4) | Fungicidal? (R. oryzae 729-02, 24 h): Y (Cidal = MFC/MIC ≦ 4) | Fungicidal? (R. oryzae 729-02, 48 h): Y (Cidal = MFC/MIC ≦ 4) | Fungicidal? (R. oryzae HUMC 02, 24 h): Y (Cidal = MFC/MIC ≦ 4) | Fungicidal? (R. oryzae HUMC 02, 48 h): Y (Cidal = MFC/MIC ≦ 4) | Fungicidal? (R. oryzae MIC90/MFC90, 24 h): Y (Cidal = MFC/MIC ≦ 4) | MFC90 (R. oryzae MIC90/MFC90, 24 h): 12.5 µg/mL (≈ 33.5 µM) | Fungicidal? (R. oryzae MIC90/MFC90, 48 h): Y (Cidal = MFC/MIC ≦ 4) | MFC90 (R. oryzae MIC90/MFC90, 48 h): 6.25 µg/mL (≈ 16.7 µM) | Fungicidal? (R. oryzae pyr17 pyrG−/−, 24 h): Y (Cidal = MFC/MIC ≦ 4) | Fungicidal? (R. oryzae pyr17 pyrG−/−, 48 h): Y (Cidal = MFC/MIC ≦ 4) | Fungicidal? (R. oryzae type 1 NRRL13440, 24 h): N (Cidal = MFC/MIC ≦ 4) | Fungicidal? (R. oryzae type 1 NRRL13440, 48 h): N (Cidal = MFC/MIC ≦ 4) | Fungicidal? (R. oryzae type I NRRL 6059, 24 h): Y (Cidal = MFC/MIC ≦ 4) | Fungicidal? (R. oryzae type I NRRL 6059, 48 h): Y (Cidal = MFC/MIC ≦ 4) | Fungicidal? (R. oryzae type I NRRL 10206, 24 h): Y (Cidal = MFC/MIC ≦ 4) | Fungicidal? (R. oryzae type I NRRL 10206, 48 h): Y (Cidal = MFC/MIC ≦ 4) | Fungicidal? (R. oryzae type I NRRL11823, 24 h): Y (Cidal = MFC/MIC ≦ 4) | Fungicidal? (R. oryzae type I NRRL11823, 48 h): Y (Cidal = MFC/MIC ≦ 4) | Fungicidal? (R. oryzae type I NRRL13142, 24 h): Y (Cidal = MFC/MIC ≦ 4) | Fungicidal? (R. oryzae type I NRRL13142, 48 h): Y (Cidal = MFC/MIC ≦ 4) | Fungicidal? (R. oryzae type I NRRL13533, 24 h): Y (Cidal = MFC/MIC ≦ 4) | Fungicidal? (R. oryzae type I NRRL13533, 48 h): Y (Cidal = MFC/MIC ≦ 4) | Fungicidal? (R. oryzae type I NRRL 21251, 24 h): Y (Cidal = MFC/MIC ≦ 4) | Fungicidal? (R. oryzae type I NRRL 21251, 48 h): Y (Cidal = MFC/MIC ≦ 4) | Fungicidal? (R. oryzae type I NRRL21396, 24 h): Y (Cidal = MFC/MIC ≦ 4) | Fungicidal? (R. oryzae type I NRRL21396, 48 h): Y (Cidal = MFC/MIC ≦ 4) | Fungicidal? (R. oryzae type I NRRL21409, 24 h): Y (Cidal = MFC/MIC ≦ 4) | Fungicidal? (R. oryzae type I NRRL21409, 48 h): Y (Cidal = MFC/MIC ≦ 4) | Fungicidal? (R. oryzae type II NRRL 18148, 24 h): Y (Cidal = MFC/MIC ≦ 4) | Fungicidal? (R. oryzae type II NRRL 18148, 48 h): Y (Cidal = MFC/MIC ≦ 4) | Fungicidal? (R. oryzae type II NRRL 21446, 24 h): Y (Cidal = MFC/MIC ≦ 4) | Fungicidal? (R. oryzae type II NRRL 21446, 48 h): Y (Cidal = MFC/MIC ≦ 4) | Fungicidal? (R. oryzae type II NRRL 21447, 24 h): Y (Cidal = MFC/MIC ≦ 4) | Fungicidal? (R. oryzae type II NRRL 21447, 48 h): Y (Cidal = MFC/MIC ≦ 4) | Fungicidal? (R. oryzae type II NRRL 21477, 24 h): Y (Cidal = MFC/MIC ≦ 4) | Fungicidal? (R. oryzae type II NRRL 21477, 48 h): Y (Cidal = MFC/MIC ≦ 4) | Fungicidal? (R. oryzae type II NRRL 21628, 24 h): Y (Cidal = MFC/MIC ≦ 4) | Fungicidal? (R. oryzae type II NRRL 21628, 48 h): Y (Cidal = MFC/MIC ≦ 4) | Fungicidal? (R. oryzae type II NRRL 21789, 24 h): Y (Cidal = MFC/MIC ≦ 4) | Fungicidal? (R. oryzae type II NRRL 21789, 48 h): Y (Cidal = MFC/MIC ≦ 4) | Fungicidal? (R. orzae type II 10206, 24 h): Y (Cidal = MFC/MIC ≦ 4) | Fungicidal? (R. orzae type II 10206, 48 h): Y (Cidal = MFC/MIC ≦ 4) | MFC (24 h, R. oryzae 99-133, 24 h): 6.25 µg/mL (≈ 16.7 µM) | MIC (24 h, R. oryzae 99-133, 24 h): 6.25 µg/mL (≈ 16.7 µM) | MFC (24 h, R. oryzae 99-880, 24 h): 3.12 µg/mL (≈ 8.36 µM) | MIC (24 h, R. oryzae 99-880, 24 h): 3.12 µg/mL (≈ 8.36 µM) | MFC (24 h, R. oryzae 99-892, 24 h): 1.56 µg/mL (≈ 4.18 µM) | MIC (24 h, R. oryzae 99-892, 24 h): 1.56 µg/mL (≈ 4.18 µM) | MFC (24 h, R. oryzae 729-02, 24 h): 12.5 µg/mL (≈ 33.5 µM) | MIC (24 h, R. oryzae 729-02, 24 h): 12.5 µg/mL (≈ 33.5 µM) | MFC (24 h, R. oryzae HUMC 02, 24 h): 12.5 µg/mL (≈ 33.5 µM) | MIC (24 h, R. oryzae HUMC 02, 24 h): 12.5 µg/mL (≈ 33.5 µM) | MFC [1]: 0.78 µg/mL (≈ 2.09 µM) | MIC [1]: 0.78 µg/mL (≈ 2.09 µM) | MFC [2]: 3.12 µg/mL (≈ 8.36 µM) | MIC [2]: 3.12 µg/mL (≈ 8.36 µM) | MFC (48 h, R. oryzae 99-133, 48 h): 6.25 µg/mL (≈ 16.7 µM) | MIC (48 h, R. oryzae 99-133, 48 h): 1.56 µg/mL (≈ 4.18 µM) | MFC (48 h, R. oryzae 99-880, 48 h): 3.12 µg/mL (≈ 8.36 µM) | MIC (48 h, R. oryzae 99-880, 48 h): 3.12 µg/mL (≈ 8.36 µM) | MFC (48 h, R. oryzae 99-892, 48 h): 1.56 µg/mL (≈ 4.18 µM) | MIC (48 h, R. oryzae 99-892, 48 h): 1.56 µg/mL (≈ 4.18 µM)
